We go through one compound from patent US20250346601A1, “HETEROCYCLIC COMPOUNDS FOR THE PREVENTION AND THERAPY OF CIRCADIAN RHYTHM DISORDERS” (UNIVERZITA PALACKEHO V OLOMOUCI, priority 2022, published 2025).

The subject of assay [1] is U2OS line transduced with the Bmal 1-Luc reporter. Briefly: Period of the circadian rhythm in U2OS cells with Bmal1-Luc reporter (luminescence, cosinor analysis). The settings on record: 20 μM; U2OS; DMSO control = 1.00. It is filed as cell-based, Human.
The test system of assay [2] is NIH3T3 line transfected with the Per2-Luc reporter. In words: Period of the circadian rhythm in NIH3T3 fibroblasts with Per2-Luc reporter (luminescence, cosinor analysis). It is filed as cell-based, mouse. The settings on record: 50 μM; NIH3T3; DMSO control = 1.00.
The test system of assay [3] is explanted suprachiasmatic nuclei (SCN) of the hypothalamus. Briefly: PER2::Luc rhythm in organotypic explants of suprachiasmatic nucleus (LumiCycle). Format: cell-based, mouse. Conditions: ratio of period 72 h after and 72 h before application. The method, then: FIG. 5. Compounds of formula I modulate the parameters of the circadian clock in the suprachiasmatic nucleus, the central circadian oscillator. It increases the period (left; measured as the ratio of period during 72 h after and 72 h before application of a compound) and induces phase shift (right; quantified by fitting a cosine curve before the application of a compound, extrapolating it beyond the time of application and subtracting the actual and extrapolated phases of the first full circadian cycle corrected by endogenous period of the explant, while designating phase advance as positive and phase delay as negative number in hours). (Example 14)
Male and female mPer2Luc mice (strain B6.129S6-Per2tm1Jt/J, JAX, USA) (Yoo et al., 2004; doi: 10.1073/pnas.0308709101) were maintained in a light/dark cycle with 12 hours of light and 12 hours of darkness (LD12: 12), killed between 12:00 and 15:00, i.e. 6-9 hours after turning on the lights, by rapid cervical dislocation under isoflurane anesthesia, their brains were removed and 250 μm thick SCN slices in ice-cold HBSS medium were prepared using a vibratome (Leica, Wetzlar, Germany). Two explants containing SCN from each brain were prepared. […]

Assay [4] relates to explanted choroid plexus (ChP) of 4th brain ventricle. Briefly: PER2::Luc rhythm in explanted choroid plexus (luminescence microscopy). Format: cell-based, mouse. Conditions: 200 uM, choroid plexus explant. The method, then:
FIG. 6: Compound 4 affects the circadian clock in the explanted choroid plexus (CHP). (A) Individual PER2::Luc traces in analysed single-cell-sized regions of interest (ROIs) of explanted choroid plexus (CP) cultivated over 5 days ex vivo in the presence of DMSO (left) or compound 4 (right). Cosine curve below the traces indicates average oscillation across the whole explant; see dramatic increase of period in the presence of 200 uM compound 4. […] (Example 15)
Male mPer2Luc were kept and sacrificed under the same conditions as above. Their brains were removed, choroid plexus was dissected from the 4th ventricle in ice-cold HBSS medium and placed on Millicell Culture Inserts inside 6-well plate with test compound or DMSO vehicle in 1 ml air-buffered recording medium supplemented with 100 U/ml penicillin, 100 ug/ml streptomycin (Sigma-Aldrich, St. Luis, MO, USA), 1x GlutaMAX (ThermoFisher, Waltham, MA, USA), 1x B27 (ThermoFisher) and 0.1 mM Luciferin-EF (Promega Madison, WI, USA). The were placed inside Luminoview LV200 Miscroscope (Olympus, USA) with liquid-cooled EM-CCD camera (Hamamatsu) and luminescence was recorded by 10 min exposure every 1h.

Regarding `c1coc(CNc2ncnc3c2ncn3C2CCCCO2)c1` (centres unmarked) [Compound 4, N-(furan-2-ylmethyl)-9-(tetrahydro-2H-pyran-2-yl)-9H-purin-6-amine], in assay [1], the “Period length ± standard error of the mean (expressed relative to control) at the indicated concentration” value was 20 μM: 1.08 ± 0. Besides, the “Period length ± standard error of the mean (expressed relative to the control) at the indicated concentration” value in assay [2] was 50 μM: 1.23 ± 0.03. In addition, the “Circadian rhythm period (in words)” value in assay [3] was “increases the circadian rhythm period”. The “Period of PER2::Luc (in words)” value in assay [4] (5 days ex vivo, vs DMSO) was “significantly (t-test, P<0.0001) increased”. The “Phase of PER2::Luc (in words)” value in assay [4] (polar histogram of ROIs vs DMSO) is “dramatically affected”.
